According to BindingDB's records for doi:10.1016/j.bmcl.2003.09.092 (Virginia Commonwealth University, 2003):

Assay: Binding affinity for rat imidazoline receptor I-1 from crude P2 membranes

SMILES: C(=C\c1ccccc1)/C1=NCCN1 [2-((E)-Styryl)-4,5-dihydro-1H-imidazole]
- Ki: 10 nM
